Measurements published in BindingDB's records for doi:10.1021/acsmedchemlett.9b00625 (Rwth Aachen University, 2020).

What was measured:
[1] = Inhibition of BRD4 in human HEL cells harboring JAK2 V617F mutant assessed as decrease in metabolic activity measured after 72 hrs by MTT assay
[2] = Inhibition of BRD4 in human MOLM-14 cells harboring FLT3-ITD mutant assessed as decrease in metabolic activity measured after 72 hrs by MTT assay

IC50 [1]: 500 nM
IC50 [2]: 1000 nM
SMILES: CN1Cc2cc(N=[S@@](C)(=O)c3ccccc3)ccc2NC1=O
